We go through two sequences from article PMC4585929, “Cargo Delivery into the Brain by in vivo identified Transport Peptides” (Scientific Reports, 2015).

Entries after “also recorded” stand apart in the source; their conditions may differ.

Data set [1] in a line: Blood pharmacokinetics of i.v. injected T7 phage in cisterna magna cannulated rats (plaque counting). Format: in vivo, rat. The text has this: (§1) The cisterna magna (CM) was cannulated using modification of methods previously described. Anesthetized Wistar rats (200–350 g) were mounted onto a stereotaxic device and a median incision was made on the top of the shaved and aseptically prepared skin of head to expose the skull. Two holes were drilled at the parietal region and mounting screws were secured in the holes. An additional hole was drilled at the external occipital crest and used to stereotactically guide the stainless steel cannula into the CM. Dental cement was applied around the cannula and the screws to hold it in place. After light curing and solidification of the cement, the skin wound was sutured with a 4/0 supramid yarn. Correct placement of the cannula is confirmed by spontaneous flow of cerebrospinal fluid (CSF). The rats were removed from the stereotaxic apparatus, received appropriate post-operative care and analgesic treatment and allowed to recover for at least one week until no sign of blood in the CSF was observed. Wistar rats (Crl:WI/Han) were obtained from Charles River (France). All rats were kept under specific pathogen-free conditions. All animal experiments were approved by the Swiss Veterinary Office Basel-Stadt and were carried out in accordance with the animal permission #2474 (Assessment of active brain transport by measuring the level of therapeutic candidates in the rat CSF and brain).
The CM cannulated conscious rats were gently held in the hand. The mandrain was pulled out of the cannula and 10ul of the spontaneous flowing CSF was collected. […]
The amplified phages underwent 2–3 rounds of endotoxin removal using endotoxin removal beads (Miltenyi Biotec) before intravenous (i.v.) injection (500 ul/animal). […] The phage contents in the CSF and blood samples harvested at the indicated time-points were determined by a plaque counting assay according to the manufacturer’s instructions (T7Select System Manual). […] A total of four rounds of in vivo panning were performed in which two selection branches were kept and analyzed separately during the first three selection rounds. […]

Data set [2] can be described thus: CSF sampling model: phage recovered from CSF of cisterna magna cannulated conscious rats after i.v. injection (plaque counting). It is filed as in vivo, rat.
Excerpt: as §1
The CM cannulated conscious rats were gently held in the hand. The mandrain was pulled out of the cannula and 10ul of the spontaneous flowing CSF was collected. Only clear CSF samples with no sign of blood contamination or discoloration were included in this study since patency of the cannula was eventually compromised. In parallel ∼10–20 μL blood from a small incision of the tip of the tail was collected in heparin (Sigma-Aldrich) containing tubes. CSF and blood was collected at different time points after intravenous injection of the T7 bacteriophages. Prior to collecting every CSF sample ∼5–10 μL of fluid was discarded, which represents the catheter dead volume.
The amplified phages underwent 2–3 rounds of endotoxin removal using endotoxin removal beads (Miltenyi Biotec) before intravenous (i.v.) injection (500 ul/animal). 2 × 10^12 phages were injected in the first, 2 × 10^10 phages were injected in the second and 2 × 10^9 phages were injected per animal in the third and fourth round of selection. The phage contents in the CSF and blood samples harvested at the indicated time-points were determined by a plaque counting assay according to the manufacturer’s instructions (T7Select System Manual). Phage selection was carried out by i.v. tail vein injection of the purified library or by re-injection of the CSF recovered phages of the previous selection round, and 10 min, 30 min, 60 min, 90 min, 120 min, 180 min respectively 240 min later CSF and blood samples were collected. A total of four rounds of in vivo panning were performed in which two selection branches were kept and analyzed separately during the first three selection rounds. All CSF recovered phage inserts of the first two selection rounds were subjected to 454/Roche pyrosequencing whereas all CSF recovered clones of the last two selection rounds were manually sequenced. All blood harvested phages of the first selection round were also 454/Roche pyrosequenced. For the injection of the phage clones the selected phages were amplified in E. coli (BL5615) on 500 cm^2 plates at 37 °C for 4 hours. The individually picked and manually sequenced clones were amplified in TB medium. After phage extraction, purification and endotoxin removal steps (described above) 2 × 10^10 phages/animal in 300 μl were i.v. injected into one tail vein.
Supplementary Figure 3 – Pharmacokinetic profiles of wt T7 phage in the CSF and blood
compartments. Determination of the clearance of wt phage from the blood and their occurrence in
the CSF compartment over time. […]

The subject of another data set is brain capillaries. The data set is described as follows: Immunohistochemistry of phage particles in rat brain 1 hour after i.v. injection. Format: in vivo. Conditions: 2 × 10^10 phage/animal, FITC anti-T7 antibody. How it is done:
Selected phage clones and insertless phage were i.v. injected via tail vein (2 × 10^10 phage/animal in 300 μl PBS). 10 minutes before perfusion and subsequent fixation 100 ul DyLight594 labeled lectin (Vector Laboratories Inc., DL-1177) was i.v. injected into the same animals. 60 minutes after phage administration rats were perfused through the heart with 50 ml PBS followed by 50 ml 4% PFA/PBS. Brain samples were additionally fixed by 4% PFA/PBS overnight and immersed in 30% sucrose at 4 °C overnight. Samples were frozen quickly in O.C.T. compound. Frozen samples were subject to immunohistochemistry, performed on 30 um freezing sections blocked with 1% BSA for 2 hours at room temperature and incubated with a polyclonal FITC labeled antibody against the T7 phage (Novus NB 600-376A) overnight at 4 °C. Finally, the sections were then washed 3 times with PBS and observed with a laser confocal microscope (Leica TCS SP5).

The mark [3] stands for this setting: wt T7 phage, 1x10^10 phage i.v., 4 cannulated rats, plaque counting.
The mark [4] stands for this setting: wt phage i.v., average over entire sampling period (0–250 minutes).
Setting [5] is: 2 × 10^10 phages/animal i.v., CM cannulated rats, result in words.

For “PAGISRELVDKL [wt phage, wild-type T7 phage with backbone 12-mer insert …, reference compound]”, in data set [1] (rat, tail vein i.v., calculated from injected titer and rat blood volume), the “injected dose of wt phage detected in the blood 10 min post i.v. injection” value was “about 1%”. Also, in data set [1] (setting [3]), the “half-life in blood (slower first-order clearance after initial rapid drop)” value came out at 27.7 min. In addition, in data set [2] (setting [3]), the “half-life in CSF” value turned out to be 25.7 min. Further, in data set [2] (setting [4]), the “CSF phage as percentage of the blood T7 phage titer” value is reported as “about 1 × 10^−3%” and the “CSF phage as percentage of the initially injected phage” value is reported as ~4 × 10^−8%. Further, in data set [2] (wt phage i.v., average over entire sampling period (0–250 minutes), listed as wt T7 phages), the “CSF phage as percentage of the blood T7 phage titer” value is recorded as 0.001%.

Regarding “RLSSVDSDLSGC [#2077, T7 phage clone displaying …; also synthesized as N-terminally biotinylated transport peptide]”, the “phage staining in the brain capillaries (IHC)” value in the data set with brain capillaries is given as “strong staining in the brain capillaries”. For the same sequence, the “stability in the blood / plasma half-life compared to other hits” value in data set [1] (setting [5]) was “increased stability in the blood; also recorded: prolonged plasma half-life compared to other hits”. Further, in data set [2] (setting [5]), the “CSF concentration course over the sampling time” value was “stabilized at a high level” and the “CSF titer change during the first 10 minutes” value is recorded as “increased during the first 10 minutes”. Further, the “long term CSF profile over 48 hour period” value in data set [2] (2 × 10^10 phages/animal i.v., at least three CM cannulated rats, result in words) is “rapid increase in CSF and a sustainable level”. In addition, the “CSF titer relative to empty control phage (#1779)” value in data set [2] (2 × 10^10 phages/animal tail vein i.v., at least 3 CM cannulated rats each) is “about 1000 fold”.
